Data published in US6472348B1, “Pyridone derivatives and herbicides” (Kumiai Chemical Industry Co., Ltd., priority 1996, dated 2002).

Tests used:
barnyardgrass (Ec) [1] = assay: Test Example 1: herbicidal effects by paddy field soil treatment; type: in vivo; details: 100 g of the active ingredient per 10 ares, 21st day after the application, index 0-5 of Table 47;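 note: grade of growth control; 5 = at least 90%; 4 = 70 to 90%; 3 = 50 to 70%; 2 = 30 to 50%; 1 = 10 to 30%; 0 = under 10%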
Procedure, shortened: (§1)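 Herbicidal effect was scored against a graded standard 21 days after treatment. Seeds were sown in puddled, leveled paddy soil flooded to 3 cm depth, and the active ingredient was applied at 100 g per 10 ares before greenhouse culture.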

bulrush (Sc) = assay: as above; type: in vivo; details: 100 g of the active ingredient per 10 ares, 21st day after the application, index 0-5 of Table 47;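 note: grade of growth control; 5 = at least 90%; 4 = 70 to 90%; 3 = 50 to 70%; 2 = 30 to 50%; 1 = 10 to 30%; 0 = under 10%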
Procedure, shortened: as §1

monochoria (Mo) = assay: as above; type: in vivo; details: 100 g of the active ingredient per 10 ares, 21st day after the application, index 0-5 of Table 47;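 note: grade of growth control; 5 = at least 90%; 4 = 70 to 90%; 3 = 50 to 70%; 2 = 30 to 50%; 1 = 10 to 30%; 0 = under 10%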
Procedure, shortened: as §1

Digitaria ciliaris (Di) = assay: Test Example 2: herbicidal effects by upland field soil treatment; type: in vivo; details: 100 g of the active ingredient per 10 ares, evaluated on the 21st day after application;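 note: grade of growth control; 5 = at least 90%; 4 = 70 to 90%; 3 = 50 to 70%; 2 = 30 to 50%; 1 = 10 to 30%; 0 = under 10%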
Description: (§2) (Test on Herbicidal Effects by Upland Field Soil Treatment)

barnyardgrass (Ec) [2] = assay: as above; type: in vivo; details: 100 g of the active ingredient per 10 ares, evaluated on the 21st day after application
Description: as §2

[3] = test system: common lambsquarters (Ch); assay: as above; type: in vivo; details: 100 g of the active ingredient per 10 ares, evaluated on the 21st day after application
Description: as §2

pale smartweed (Po) [4] = assay: as above; type: in vivo; details: 100 g of the active ingredient per 10 ares, evaluated on the 21st day after application
Description: as §2

rice flatsedge (Ci) [5] = assay: as above; type: in vivo; details: 100 g of the active ingredient per 10 ares, evaluated on the 21st day after application
Description: as §2

slender amaranth (Am) [6] = assay: as above; type: in vivo; details: 100 g of the active ingredient per 10 ares, evaluated on the 21st day after application
Description: as §2

Diaitaria ciliaris (Di) = assay: Test Example 3: herbicidal effects by upland field foliage treatment; type: in vivo; set-up: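 grade of growth control; 5 = at least 90%; 4 = 70 to 90%; 3 = 50 to 70%; 2 = 30 to 50%; 1 = 10 to 30%; 0 = under 10%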; details: 100 g active ingredient per 10 ares, evaluated 14th day after treatment
Procedure, shortened: (§3)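 Using plants cultured for 2 weeks in a greenhouse from seed sown in soil-covered sand (pots 120 cm^2), the compounds were applied to foliage, and weed control was graded by standard criteria 14 days thereafter.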

barnyardgrass (Ec) [7] = assay: as above; type: in vivo; set-up: scale not given here; details: 100 g active ingredient per 10 ares, evaluated 14th day after treatment
Procedure, shortened: as §3

[8] = test system: common lambsquarters (Ch); assay: as above; type: in vivo; set-up: scale not given here; details: 100 g active ingredient per 10 ares, evaluated 14th day after treatment
Procedure, shortened: as §3

pale smartweed (Po) [9] = assay: as above; type: in vivo; set-up: scale not given here; details: 100 g active ingredient per 10 ares, evaluated 14th day after treatment
Procedure, shortened: as §3

rice flatsedge (Ci) [10] = assay: as above; type: in vivo; set-up: scale not given here; details: 100 g active ingredient per 10 ares, evaluated 14th day after treatment
Procedure, shortened: as §3

slender amaranth (Am) [11] = assay: as above; type: in vivo; set-up: scale not given here; details: 100 g active ingredient per 10 ares, evaluated 14th day after treatment
Procedure, shortened: as §3

cotton (Go) = assay: Test Example 4: crop plant selectivity by upland field soil treatment (cotton), phytotoxicity; type: in vivo; set-up: scale not given here; details: dose 6.3 g ai/10 a, evaluated 21st day after application
Description: (§4) (Test on Crop Plant Selectivity by Upland Field Soil Treatment)
(§5) In a plastic pot (surface area: 600 cm^2) filled with sand, cotton (Go), Diaitaria ciliaris (Di), green foxtail (Se), pale smartweed (Po), slender amaranth (Am), common lambsquarters (Ch) and China jute (Ab) were sown and covered with soil. […] The plants were then cultured in a green house, and the evaluation of the herbicidal effects and phytotoxicity was conducted on the 21st day after the application in accordance with the standards as identified in Table 47. Symbol—represents “not tested”.

China jute (Ab) [12] = assay: Test Example 4: crop plant selectivity by upland field soil treatment (cotton), herbicidal effects; type: in vivo; set-up: scale not given here; details: dose 6.3 g ai/10 a, evaluated 21st day after application
Description: as §4, §5

[13] = test system: common lambsquarters (Ch); assay: as above; type: in vivo; set-up: scale not given here; details: dose 6.3 g ai/10 a, evaluated 21st day after application
Description: as §4, §5

green foxtail (Se) [14] = assay: as above; type: in vivo; set-up: scale not given here; details: dose 6.3 g ai/10 a, evaluated 21st day after application
Description: as §4, §5

pale smartweed (Po) [15] = assay: as above; type: in vivo; set-up: scale not given here; details: dose 6.3 g ai/10 a, evaluated 21st day after application
Description: as §4, §5

slender amaranth (Am) [16] = assay: as above; type: in vivo; set-up: scale not given here; details: dose 6.3 g ai/10 a, evaluated 21st day after application
Description: as §4, §5

wheat (Tr) [17] = assay: Test Example 5: crop plant selectivity by upland field soil treatment (wheat), phytotoxicity; type: in vivo; set-up: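 grade of crop injury; 5 = at least 90%; 4 = 70 to 90%; 3 = 50 to 70%; 2 = 30 to 50%; 1 = 10 to 30%; 0 = under 10%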; details: dose 6.3 g ai/10a, 21st day after application
Description: as §4
(§6) In a plastic pot (surface area: 600 cm^2) filled with sand, wheat (Tr), Diaitaria ciliaris (Di), green foxtail (Se), pale smartweed (Po), slender amaranth (Am), common lambsquarters (Ch) and China jute (Ab) were sown and covered with soil. […] The plants were then cultured in a green house, and the evaluation of the herbicidal effects and phytotoxicity was conducted on the 21st day after the application in accordance with the standards as identified in Table 47. Symbol—represents “not tested”.

China jute (Ab) [18] = assay: Test Example 5: crop plant selectivity by upland field soil treatment (wheat), herbicidal effects; type: in vivo; set-up: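 grade of growth control; 5 = at least 90%; 4 = 70 to 90%; 3 = 50 to 70%; 2 = 30 to 50%; 1 = 10 to 30%; 0 = under 10%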; details: dose 6.3 g ai/10a, 21st day after application
Description: as §4, §6

[19] = test system: common lambsquarters (Ch); assay: as above; type: in vivo; set-up: scale not given here; details: dose 6.3 g ai/10a, 21st day after application
Description: as §4, §6

green foxtail (Se) [20] = assay: as above; type: in vivo; set-up: scale not given here; details: dose 6.3 g ai/10a, 21st day after application
Description: as §4, §6

pale smartweed (Po) [21] = assay: as above; type: in vivo; set-up: scale not given here; details: dose 6.3 g ai/10a, 21st day after application
Description: as §4, §6

slender amaranth (Am) [22] = assay: as above; type: in vivo; set-up: scale not given here; details: dose 6.3 g ai/10a, 21st day after application
Description: as §4, §6

soybean (Gl) = assay: Test Example 6: crop plant selectivity by upland field soil treatment (soybean), phytotoxicity; type: in vivo; set-up: scale not given here; details: dose 6.3 g ai/10a, 21st day after application
Description: as §4
(§7) In a plastic pot (surface area: 600 cm^2) filled with sand, soybean (Gl), Diaitaria ciliaris (Di), green foxtail (Se), Johnsongrass (So), pale smartweed (Po), slender amaranth (Am), common lambsquarters (Ch) and China jute (Ab) were sown and covered with soil. […] The plants were then cultured in a green house, and the evaluation of the herbicidal effects and phytotoxicity was conducted on the 21st day after the application in accordance with the standards as identified in Table 47. Symbol—represents “not tested”.

China jute (Ab) [23] = assay: Test Example 6: crop plant selectivity by upland field soil treatment (soybean), herbicidal effects; type: in vivo; set-up: scale not given here; details: dose 6.3 g ai/10a, 21st day after application
Description: as §4, §7

[24] = test system: common lambsquarters (Ch); assay: as above; type: in vivo; set-up: scale not given here; details: dose 6.3 g ai/10a, 21st day after application
Description: as §4, §7

green foxtail (Se) [25] = assay: as above; type: in vivo; set-up: scale not given here; details: dose 6.3 g ai/10a, 21st day after application
Description: as §4, §7

pale smartweed (Po) [26] = assay: as above; type: in vivo; set-up: scale not given here; details: dose 6.3 g ai/10a, 21st day after application
Description: as §4, §7

slender amaranth (Am) [27] = assay: as above; type: in vivo; set-up: scale not given here; details: dose 6.3 g ai/10a, 21st day after application
Description: as §4, §7

wheat (Tr) [28] = assay: Test Example 9: crop plant selectivity by upland field foliage treatment (wheat), phytotoxicity; details: dose 1.6 g ai/10a, 14th day after treatment
Description: (§8) (Test on Crop Plant Selectivity by Upland Field Foliage Treatment)
(§9) In a plastic pot (surface area: 600 cm^2) filled with sand, wheat (Tr), pale smartweed (Po), slender amaranth (Am), common lambsquarters (Ch) and China jute (Ab) were sown and cultured in a green house for 2 weeks. […] The plants were then cultured in a green house, and the evaluation of the herbicidal effects and phytotoxicity was conducted on the 14th day after the treatment in accordance with the standards as identified in Table 47.

China jute (Ab) [29] = assay: Test Example 9: crop plant selectivity by upland field foliage treatment (wheat), herbicidal effects; type: in vivo; set-up: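 grade of growth control; 5 = at least 90%; 4 = 70 to 90%; 3 = 50 to 70%; 2 = 30 to 50%; 1 = 10 to 30%; 0 = under 10%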; details: dose 1.6 g ai/10a, 14th day after treatment
Description: as §8, §9

[30] = test system: common lambsquarters (Ch); assay: as above; type: in vivo; set-up: scale not given here; details: dose 1.6 g ai/10a, 14th day after treatment
Description: as §8, §9

pale smartweed (Po) [31] = assay: as above; type: in vivo; set-up: scale not given here; details: dose 1.6 g ai/10a, 14th day after treatment
Description: as §8, §9

slender amaranth (Am) [32] = assay: as above; type: in vivo; set-up: scale not given here; details: dose 1.6 g ai/10a, 14th day after treatment
Description: as §8, §9

In the case of `CCN1C(=O)COc2cc(F)c(-c3ccc(C(F)(F)F)n(C)c3=O)cc21` [Compound 2-15], the “Herbicidal effects Ec” value (barnyardgrass (Ec) [1]) was 5, the “Herbicidal effects Sc” value (bulrush (Sc)) was 5 and the “Herbicidal effects Mo” value (monochoria (Mo)) was 5. For the same compound, the “Herbicidal effects Di” value (Digitaria ciliaris (Di)) was 5, the “Herbicidal effects Ec” value (barnyardgrass (Ec) [2]) was 5 and the “Herbicidal effects Ch” value [3] was 5. The “Herbicidal effects Po” value (pale smartweed (Po) [4]) was 5, the “Herbicidal effects Ci” value (rice flatsedge (Ci) [5]) was 5 and the “Herbicidal effects Am” value (slender amaranth (Am) [6]) was 5. The “Herbicidal effects Di” value (Diaitaria ciliaris (Di)) was 5, the “Herbicidal effects Ec” value (barnyardgrass (Ec) [7]) was 5 and the “Herbicidal effects Ch” value [8] was 5. The “Herbicidal effects Po” value (pale smartweed (Po) [9]) was 5, the “Herbicidal effects Ci” value (rice flatsedge (Ci) [10]) was 5 and the “Herbicidal effects Am” value (slender amaranth (Am) [11]) was 5. The “Phytotoxicity Go” value (cotton (Go)) was 0, the “Herbicidal effects Ab” value (China jute (Ab) [12]) was 5 and the “Herbicidal effects Ch” value [13] was 5. The “Herbicidal effects Se” value (green foxtail (Se) [14]) was 5, the “Herbicidal effects Po” value (pale smartweed (Po) [15]) was 5 and the “Herbicidal effects Am” value (slender amaranth (Am) [16]) was 5. The “Phytotoxicity Tr” value (wheat (Tr) [17]) was 1, the “Herbicidal effects Ab” value (China jute (Ab) [18]) was 5 and the “Herbicidal effects Ch” value [19] was 5. The “Herbicidal effects Se” value (green foxtail (Se) [20]) was 5, the “Herbicidal effects Po” value (pale smartweed (Po) [21]) was 5 and the “Herbicidal effects Am” value (slender amaranth (Am) [22]) was 5. For the same compound, the “Phytotoxicity Gl” value (soybean (Gl)) was 1, the “Herbicidal effects Ab” value (China jute (Ab) [23]) was 5 and the “Herbicidal effects Ch” value [24] was 5. For the same compound, the “Herbicidal effects Se” value (green foxtail (Se) [25]) was 5, the “Herbicidal effects Po” value (pale smartweed (Po) [26]) was 5 and the “Herbicidal effects Am” value (slender amaranth (Am) [27]) was 5. For the same compound, the “Phytotoxicity Tr” value (wheat (Tr) [28]) was 2, the “Herbicidal effects Ab” value (China jute (Ab) [29]) was 5 and the “Herbicidal effects Ch” value [30] was 5. The “Herbicidal effects Po” value (pale smartweed (Po) [31]) was 5 and the “Herbicidal effects Am” value (slender amaranth (Am) [32]) was 5.
